Results from patent publication US8008292B2, “Condensed benzamide compounds and inhibitors of vanilloid receptor subtype 1 (VR1) activity” (Japan Tobacco Inc., priority 2004, dated 2011).

Target: T1, human VR1 (Homo sapiens, UniProt Q8NER1)
T1 construct: expressed in transfected cells
Test: Inhibition of Ca2+ entry in cells caused by proton, in rat glioma (C6BU1) cells stably expressing human VR1 (Fura 2 fluorescence)
Type: cell-based
Settings: inhibition of proton-induced Ca2+ entry
Procedure: The assay for evaluation of VR1 inhibition by the inventive compounds will be described below. The assay was intended to evaluate in vitro inhibition of Ca^2+ entry in cells caused by proton, one of the VR1 agonists.
Rat glioma (C6BU1) cells stably expressing human VR1 were suspended in 20 mM MES buffer (at pH 6.8, contg. 20 mM 2-morpholinoethanesulfonate (referred to as MES hereinafter), 115 mM NaCl, 5 mM KCl, 1 mM MgCl2 and 14 mM D-glucose) to make a cell density of 1×10^6 cells/mL. A fluorescent dye, Fura 2-AMsolution (DojindoCorporate, Cat. No. 343-05401) was added to the suspension to make a 5 μM concentration thereof. Further, Pluronic F-127 (Wako Pure Chemical Industries, Ltd., Cat. No. P6866) was added to make a 0.1% content thereof. Then, the suspension was incubated at 37° C. for 30 min. The cells were harvested and washed three times with 20 mM MES buffer. The cells were suspended again to make a cell density of 5×10^5 cells/mL. A 500-μL portion of the suspension was taken with a cuvette (MC MEDICAL, INC., Cat. No. SSR3121), to which 10 μL of 20 mM MES buffer containing 250 mM CaCl2 was added to incorporate Ca^2+ into the cells. At the same time, 5 μL of a test compound solution (in a range of 100 μM to 10 nM in DMSO) was also added to provide a final concentration thereof in a range of 1 μM to 0.1 nM. Alternatively, 5 μL of DMSO was added as control to provide a final concentration of 1% DMSO. The suspension was set in an intracellular ionometer (CAF-110; JASCO) 10 min after those additions. The cells were stimulated with protons by addition of 60 μL of 20 mM MES buffer at pH 1.1 to the suspension to set its pH at 5.5. The activity of the test compound was determined as a difference between the minimum of fluorescence intensity before agonist stimulation and its maximum after the stimulation. The value of IC50 was derived from percentage of inhibition by the test compound compared with the control.
In the tables, the symbol “++” indicates an IC50 value less than 100 nM and the symbol “+” indicates an IC50 value of 100 nM to 1,000 nM inclusive.

T1 sequence (Q8NER1 whole entry): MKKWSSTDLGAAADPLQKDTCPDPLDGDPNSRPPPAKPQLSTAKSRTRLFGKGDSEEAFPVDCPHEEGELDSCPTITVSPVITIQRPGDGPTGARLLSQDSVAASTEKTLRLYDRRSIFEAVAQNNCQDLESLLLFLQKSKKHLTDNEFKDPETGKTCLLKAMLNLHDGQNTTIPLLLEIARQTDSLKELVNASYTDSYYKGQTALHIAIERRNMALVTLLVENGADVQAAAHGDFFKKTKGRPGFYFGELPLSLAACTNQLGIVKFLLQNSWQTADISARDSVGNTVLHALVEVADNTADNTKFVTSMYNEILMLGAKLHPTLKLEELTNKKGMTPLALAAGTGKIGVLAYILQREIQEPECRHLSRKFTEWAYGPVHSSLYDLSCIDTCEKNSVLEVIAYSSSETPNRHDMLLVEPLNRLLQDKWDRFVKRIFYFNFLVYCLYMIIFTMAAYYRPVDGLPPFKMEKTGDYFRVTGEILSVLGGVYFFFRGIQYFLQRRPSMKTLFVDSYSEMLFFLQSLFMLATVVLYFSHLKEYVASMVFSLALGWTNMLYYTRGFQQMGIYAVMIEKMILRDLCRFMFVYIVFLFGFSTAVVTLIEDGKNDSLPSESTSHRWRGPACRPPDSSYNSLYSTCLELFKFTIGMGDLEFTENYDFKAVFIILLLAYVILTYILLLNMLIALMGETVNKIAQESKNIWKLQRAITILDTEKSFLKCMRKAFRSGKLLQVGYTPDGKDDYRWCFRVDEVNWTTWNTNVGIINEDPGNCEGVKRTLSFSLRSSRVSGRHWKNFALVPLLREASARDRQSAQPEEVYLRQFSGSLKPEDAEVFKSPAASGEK

IC50	Structure (SMILES)
0.1 to 1 µM	Cc1ccc(N2CCOc3c(C(=O)NN4CCC(C(C)(C)C)CC4)cccc32)nc1 [Example 1-152]
0.1 to 1 µM	O=C(Nc1ccc(C(F)(F)F)cc1)c1cccc2c1OCCN2c1ccc(OCCO)cn1 [Example 1-153]
< 0.1 µM	O=C(Nc1ccc(C(F)(F)F)cc1)c1cccc2c1OCCN2c1ncc(CCO)cc1Cl [Example 1-154]
< 0.1 µM	Cc1ccc(N2CCOc3c(C(=O)Nc4ccc(OCC(C)(C)O)cc4)cccc32)nc1 [Example 1-155]
< 0.1 µM	Cc1ccc(N2CCOc3c(C(=O)Nc4ccc(N5CCCCC5)c(F)c4)cccc32)nc1 [Example 1-156]
< 0.1 µM	Cc1ccc(N2CCOc3c(C(=O)Nc4ccc(N5CCOCC5)c(F)c4)cccc32)nc1 [Example 1-157]
< 0.1 µM	Cc1ccc(N2CCOc3c(C(=O)Nc4ccc(F)c(F)c4)cccc32)nc1 [Example 1-158]
< 0.1 µM	COc1ccc(NC(=O)c2cccc3c2OCCN3c2ccc(C)cn2)cc1F [Example 1-159]
< 0.1 µM	CCOc1ccc(NC(=O)c2cccc3c2OCCN3c2ccc(C)cn2)cc1 [Example 1-160]
< 0.1 µM	Cc1ccc(N2CCOc3c(C(=O)Nc4ccc5c(c4)N(C)CCC5)cccc32)nc1 [Example 1-162]
< 0.1 µM	Cc1ccc(N2CCOc3c(C(=O)Nc4ccc(N(C)C)c(F)c4)cccc32)nc1 [Example 1-163]
< 0.1 µM	COCCN(c1ccc(NC(=O)c2cccc3c2OCCN3c2ccc(C)cn2)cc1F)C(C)C [Example 1-164]
< 0.1 µM	CC(=O)OCCN(c1ccc(NC(=O)c2cccc3c2OCCN3c2ccc(C)cn2)cc1F)C(C)C [Example 1-165]
0.1 to 1 µM	Cc1ccc(N2CCOc3c(C(=O)Nc4ccc(N(CCO)C(C)C)c(F)c4)cccc32)nc1 [Example 1-166]
< 0.1 µM	CCOC(=O)C1CCN(c2ccc(NC(=O)c3cccc4c3OCCN4c3ccc(C)cn3)cc2F)CC1 [Example 1-167]
< 0.1 µM	COC1CCN(c2ccc(NC(=O)c3cccc4c3OCCN4c3ccc(C)cn3)cc2F)CC1 [Example 1-169]
0.1 to 1 µM	CC(=O)OC1CCN(c2ccc(NC(=O)c3cccc4c3OCCN4c3ccc(C)cn3)cc2F)CC1 [Example 1-170]
0.1 to 1 µM	Cc1ccc(N2CCOc3c(C(=O)Nc4ccc(N5CCC(O)CC5)c(F)c4)cccc32)nc1 [Example 1-171]
< 0.1 µM	COc1cc(NC(=O)c2cccc3c2OCCN3c2ccc(C)cn2)ccc1C [Example 1-172]
< 0.1 µM	Cc1ccc(N2CCOc3c(C(=O)Nc4ccc(C)c(OCCO)c4)cccc32)nc1 [Example 1-173]

IC50	Structure (SMILES)
< 0.1 µM	Cc1ccc(N2CCOc3c(C(=O)Nc4ccc(OC5CCN(C(=O)OC(C)(C)C)CC5)c(F)c4)cccc32)nc1 [Example 1-174]
0.1 to 1 µM	CCOC(=O)CO[C@H]1CC[C@H](NC(=O)c2cccc3c2OCCN3c2ccc(C)cn2)CC1 [Example 1-176]
0.1 to 1 µM	Cc1ccc(N2CCOc3c(C(=O)N[C@H]4CC[C@H](COC(C)C)CC4)cccc32)nc1 [Example 1-183]
< 0.1 µM	Cc1ccc(N2CCOc3c(C(=O)N[C@H]4CC[C@H](COC(C)(C)C)CC4)cccc32)nc1 [Example 1-186]
< 0.1 µM	Cc1ccc(N2CCOc3c(C(=O)N[C@H]4CC[C@H](OCC(C)C)CC4)cccc32)nc1 [Example 1-187]
< 0.1 µM	Cc1ccc(N2CCOc3c(C(=O)N[C@H]4CC[C@H](COCC(C)C)CC4)cccc32)nc1 [Example 1-189]
0.1 to 1 µM	Cc1ccc(N2CCOc3c(C(=O)N[C@H]4CC[C@H](OCc5ccccc5)CC4)cccc32)nc1 [Example 1-190]
< 0.1 µM	Cc1ccc(N2CCOc3c(C(=O)N[C@H]4CC[C@H](C(C)C)CC4)cccc32)nc1 [Example 1-191]
< 0.1 µM	CCC[C@H]1CC[C@H](NC(=O)c2cccc3c2OCCN3c2ccc(C)cn2)CC1 [Example 1-192]
< 0.1 µM	Cc1ccc(N2CCOc3c(C(=O)N[C@H]4CC[C@H](OCC(C)(C)C)CC4)cccc32)nc1 [Example 1-193]
< 0.1 µM	COCc1ccc(N2CCOc3c(C(=O)Nc4ccc(C(C)(C)C)cc4)cccc32)nc1 [Example 1-194]
0.1 to 1 µM	O=C(O)c1cnc(N2CCOc3c(C(=O)Nc4ccc(OC(F)(F)F)c(Cl)c4)cccc32)c(Cl)c1 [Example 1-195]
0.1 to 1 µM	O=C(O)c1cnc(N2CCOc3c(C(=O)Nc4ccc(OC(F)(F)F)cc4)cccc32)c(Cl)c1 [Example 1-196]
< 0.1 µM	CNc1ccc(N2CCOc3c(C(=O)Nc4ccc(OC(F)(F)F)cc4)cccc32)nc1 [Example 1-197]
0.1 to 1 µM	CCOc1ccc(N2CCOc3c(C(=O)Nc4ccc(OC(F)(F)F)cc4)cccc32)nc1 [Example 1-198]
< 0.1 µM	COc1cnc(N2CCOc3c(C(=O)Nc4ccc(OC(F)(F)F)cc4)cccc32)c(Cl)c1 [Example 1-199]
0.1 to 1 µM	O=C(Nc1ccc(OC(F)(F)F)cc1)c1cccc2c1OCCN2c1ccc(OCCO)cn1 [Example 1-200]
0.1 to 1 µM	O=C(Nc1ccc(OC(F)(F)F)cc1)c1cccc2c1OCCN2c1ccc(O)cn1 [Example 1-201]
< 0.1 µM	COc1ccc(N2CCOc3c(C(=O)Nc4ccc(OC(F)(F)F)cc4)cccc32)nc1 [Example 1-202]
< 0.1 µM	N#Cc1cccnc1N1CCOc2c(C(=O)Nc3ccc(OC(F)(F)F)cc3)cccc21 [Example 1-203]

IC50	Structure (SMILES)
0.1 to 1 µM	O=C(OCc1ccccc1)c1cccnc1N1CCOc2c(C(=O)Nc3ccc(OC(F)(F)F)cc3)cccc21 [Example 1-207]
< 0.1 µM	O=C(Nc1ccc(OC(F)(F)F)cc1)c1cccc2c1OCCN2c1ncccc1OCc1ccccc1 [Example 1-209]
0.1 to 1 µM	O=C(Nc1ccc(OC(F)(F)F)cc1)c1cccc2c1OCCN2c1ncccc1O [Example 1-210]
0.1 to 1 µM	O=C(Nc1ccc(OC(F)(F)F)cc1)c1cccc2c1OCCN2c1ncccc1OCc1ccccn1 [Example 1-216]
0.1 to 1 µM	O=C(Nc1ccc(OC(F)(F)F)cc1)c1cccc2c1OCCN2c1ncccc1OCc1cccnc1 [Example 1-217]
0.1 to 1 µM	N#Cc1ccc(N2CCOc3c(C(=O)Nc4ccc(OC(F)(F)F)cc4)cccc32)nc1 [Example 1-218]
< 0.1 µM	COCc1cnc(N2CCOc3c(C(=O)Nc4ccc(OC(F)(F)F)cc4)cccc32)c(Cl)c1 [Example 1-220]
< 0.1 µM	NC(=O)c1cnc(N2CCOc3c(C(=O)Nc4ccc(OC(F)(F)F)cc4)cccc32)c(Cl)c1 [Example 1-227]
< 0.1 µM	CC(=O)NC[C@H]1COc2c(C(=O)Nc3ccc(C(F)(F)F)cc3)cccc2N1c1ncccc1Cl [Example 1-228]
0.1 to 1 µM	O=C(Nc1ccc(C(F)(F)F)cc1)c1cccc2c1OC[C@H](C(=O)O)N2c1ncccc1Cl [Example 1-229]
0.1 to 1 µM	O=C(Nc1ccc(OC(F)(F)F)cc1)c1cccc2c1OC(CO)CN2c1ncccc1Cl (stereo not shown) [Example 1-231]
< 0.1 µM	NC(=O)[C@H]1COc2c(C(=O)Nc3ccc(C(F)(F)F)cc3)cccc2N1c1ncccc1Cl [Example 1-233]
< 0.1 µM	CNC(=O)[C@H]1COc2c(C(=O)Nc3ccc(C(F)(F)F)cc3)cccc2N1c1ncccc1Cl [Example 1-234]
0.1 to 1 µM	O=C(Nc1ccc2c(c1)OCO2)c1cccc2c1OCCN2c1ncc(CO)cc1Cl [Example 2-01, N-(benzo[1,3]dioxol-5-yl)-4-(3-chloro-5-hydroxymethylpyridin-2-yl)-3,4-dihydro-2H-benzo[1,4]oxazine-8-carboxamide]
< 0.1 µM	O=C(Nc1ccc(OC(F)(F)F)cc1)c1cccc2c1OCCN2c1ncc(CO)cc1Cl [Example 2-03, N-(4-trifluoromethoxyphenyl)-4-(3-chloro-5-hydroxymethylpyridin-2-yl)-3,4-dihydro-2H-benzo[1,4]oxazine-8-carboxamide]
< 0.1 µM	O=C(Nc1ccc(OC(F)(F)F)c(Cl)c1)c1cccc2c1OCCN2c1ncc(CO)cc1Cl [Example 2-04, N-(3-chloro-4-trifluoromethoxypheny)-4-(3-chloro-5-hydroxymethylpyridin-2-yl)-3,4-dihydro-2H-benzo[1,4]oxazine-8-carboxamide]
< 0.1 µM	O=C(Nc1ccc(C(F)(F)F)cc1)c1cccc2c1OCCN2c1ncc(CO)cc1Cl [Example 2-05, N-(4-trifluoromethylphenyl)-4-(3-chloro-5-hydroxymethylpyridin-2-yl)-3,4-dihydro-2H-benzo[1,4]oxazine-8-carboxamide]
< 0.1 µM	O=C(Nc1ccc(C(F)(F)F)c(F)c1)c1cccc2c1OCCN2c1ncc(CO)cc1Cl [Example 2-06, N-(3-fluoro-4-trifluoromethylphenyl)-4-(3-chloro-5-hydroxymethylpyridin-2-yl)-3,4-dihydro-2H-benzo[1,4]oxazine-8-carboxamide]
